Converted amounts (≈) assume the structure as drawn.
Test system: Staphylococcus aureus (ATCC29213)
Assay: In-vitro anti-bacterial activity, microtitre plate assay, IC90 determination (non-mycobacterial strains)
Format: cell-based
Conditions: 90% inhibitory concentration for bacterial growth, 24 hours, resazurin fluorescence
Method in brief: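 Growth inhibition measured fluorometrically with resazurin (530/590 nm) after overnight 37 °C incubation under normal atmosphere. Bacteria added at roughly 100 TCID50 per well in Mueller-Hinton broth to five-fold compound dilution series; IC90 reported in μg/ml.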

Row | Compound | IC90 STA B29213
1 | COc1nc2ccc(SC)cc2cc1C(c1ccc(Cl)cc1)C1(O)CCNC(Cc2ccc(F)cc2)C1 (stereo not drawn) [Compound 301] | 6.76 mg/L (≈ 12.6 µM)
2 | COc1nc2ccc(SC)cc2cc1C(c1ccc(Cl)cc1)C1(O)CCNC(Cc2ccc(F)cc2)C1 (stereo not drawn) [Compound 302] | 2.14 mg/L (≈ 3.98 µM)
3 | COc1nc2ccc(SC)cc2cc1C(c1cccc(Cl)c1)C1(O)CCNC(Cc2ccc(F)cc2F)C1 (stereo not drawn) [Compound 318] | 1.76 mg/L (≈ 3.17 µM)
4 | COc1nc2ccc(Br)cc2cc1C(c1ccc(Cl)cc1)C1(O)CCNC(Cc2ccc(F)cc2F)C1 (stereo not drawn) [Compound 320] | 3.71 mg/L (≈ 6.31 µM)
5 | COc1nc2ccc(Br)cc2cc1C(c1ccc(Cl)cc1)C1(O)CCNC(Cc2ccc(F)cc2)C1 (stereo not drawn) [Compound 337] | 1.80 mg/L (≈ 3.16 µM)
6 | COc1nc2ccc(Br)cc2cc1C(c1ccc(Cl)cc1)C1(O)CCNC(Cc2ccc(F)cc2)C1 (stereo not drawn) [Compound 338] | 1.80 mg/L (≈ 3.16 µM)
7 | COc1nc2ccc(Br)cc2cc1C(c1ccc(Cl)cc1)C1(O)CCNC(Cc2ccc(F)cc2)C1 (stereo not drawn) [Compound 339] | 3.60 mg/L (≈ 6.32 µM)
8 | COc1nc2ccc(Br)cc2cc1C(c1ccc(Cl)cc1)C1(O)CCNC(Cc2ccc(F)cc2)C1 (stereo not drawn) [Compound 340] | 2.86 mg/L (≈ 5.02 µM)
9 | COc1nc2ccc(Cl)cc2cc1C(c1ccc(SC)cc1)C1(O)CCNC(c2ccc(F)cc2C)C1 (stereo not drawn) [Compound 351] | 1.70 mg/L (≈ 3.17 µM)
10 | COc1nc2ccc(Cl)cc2cc1C(c1ccc(SC)cc1)C1(O)CCNC(c2ccc(F)cc2C)C1 (stereo not drawn) [Compound 352] | 1.70 mg/L (≈ 3.17 µM)
11 | COc1nc2ccc(Br)cc2cc1C(c1ccc(Cl)cc1)C1(O)CCNC(Cc2ccc(F)cc2)C1 (stereo not drawn) [Compound 355] | 3.60 mg/L (≈ 6.32 µM)
12 | COc1nc2ccc(Br)cc2cc1C(c1ccc(Cl)cc1)C1(O)CCNC(Cc2ccc(F)cc2)C1 (stereo not drawn) [Compound 356] | 1.80 mg/L (≈ 3.16 µM)
13 | COc1nc2ccc(Br)cc2cc1C(c1ccc(Cl)cc1)C1(O)CCNC(Cc2ccc(F)cc2)C1 (stereo not drawn) [Compound 357] | 5.70 mg/L (≈ 10 µM)
14 | COc1nc2ccc(Br)cc2cc1C(c1ccc(Cl)cc1)C1(O)CCNC(Cc2ccc(F)cc2)C1 (stereo not drawn) [Compound 358] | 3.60 mg/L (≈ 6.32 µM)
15 | COc1nc2ccc(Cl)cc2cc1C(c1ccc(S(C)(=O)=O)cc1)C1(O)CCNC(c2ccc(F)cc2C)C1 (stereo not drawn) [Compound 366] | 7.16 mg/L (≈ 12.6 µM)
16 | COc1nc2ccc(Cl)cc2cc1C(c1ccc(S(C)(=O)=O)cc1)C1(O)CCNC(c2ccc(F)cc2C)C1 (stereo not drawn) [Compound 367] | 7.16 mg/L (≈ 12.6 µM)
17 | C=CC1CC(O)(C(c2ccc(Cl)cc2)c2cc3cc(Br)ccc3nc2OC)CCN1 (stereo not drawn) [Compound 372] | 6.14 mg/L (≈ 12.6 µM)

Same assay, conditions: Staphylococcus aureus, ATCC29213, 24 h, 90% inhibitory concentration for bacterial growth, resazurin fluorescence, read-out: IC90 STA B29213

Row | Compound | IC90
18 | COc1nc2ccc(Br)cc2cc1C(c1ccc(Cl)cc1)C1(O)CCNCC1Cc1cccc(F)c1 (stereo not drawn) [Compound 226] | 1.8 mg/L (≈ 3.16 µM)
19 | COc1nc2ccc(CN)cc2cc1[C@@H](c1ccccc1)C1(O)CCNC(Cc2ccccc2)C1 (stereo partly drawn) [Compound 246] | > 11.8 mg/L
20 | COc1nc2ccc(SC)cc2cc1C(c1ccc(Cl)cc1)C1(O)CCNC(CC2CCCCC2)C1 (stereo not drawn) [Compound 287] | 3.31 mg/L (≈ 6.3 µM)
21 | COc1nc2ccc(S(C)(=O)=O)cc2cc1C(c1ccc(Cl)cc1)C1(O)CCNCC1Cc1cccc(F)c1 (stereo not drawn) [Compound 291] | 7.16 mg/L (≈ 12.6 µM)
22 | C=CC1CC(O)(C(c2ccc(Cl)cc2)c2cc3cc(Br)ccc3nc2OC)CCN1 (stereo not drawn) [Compound 371] | 3.08 mg/L (≈ 6.31 µM)

Test system: Mycobacterium smegmatis (ATCC607)
Assay: In-vitro anti-bacterial activity against strain M. Smegmatis ATCC607
Format: cell-based
Conditions: 90% inhibitory concentration for bacterial growth, 48 hours, Alamar Blue fluorescence
Method in brief: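 IC90 (μg/ml) derived from Alamar Blue fluorescence (530/590 nm) after 48 h growth at 37 °C under 5% CO2. About 250 CFU per well in Mueller-Hinton broth faced five-fold serial compound dilutions in BSA-containing wells.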

Row | Compound | IC90 MSM 607
23 | COc1nc2ccc(Br)cc2cc1C(c1ccc(Cl)cc1)C1(O)CCNCC1Cc1cccc(F)c1 (stereo not drawn) [Compound 226] | 0.90 mg/L (≈ 1.58 µM)
24 | COc1nc2ccc(S(C)(=O)=O)cc2cc1C(c1ccc(Cl)cc1)C1(O)CCNCC1Cc1cccc(F)c1 (stereo not drawn) [Compound 291] | 7.16 mg/L (≈ 12.6 µM)
25 | COc1nc2ccc(SC)cc2cc1C(c1ccc(Cl)cc1)C1(O)CCNC(Cc2ccc(F)cc2)C1 (stereo not drawn) [Compound 301] | 6.76 mg/L (≈ 12.6 µM)
26 | COc1nc2ccc(SC)cc2cc1C(c1ccc(Cl)cc1)C1(O)CCNC(Cc2ccc(F)cc2)C1 (stereo not drawn) [Compound 302] | 1.35 mg/L (≈ 2.51 µM)
27 | COc1nc2ccc(SC)cc2cc1C(c1cccc(Cl)c1)C1(O)CCNC(Cc2ccc(F)cc2F)C1 (stereo not drawn) [Compound 318] | 1.76 mg/L (≈ 3.17 µM)
28 | COc1nc2ccc(Br)cc2cc1C(c1ccc(Cl)cc1)C1(O)CCNC(Cc2ccc(F)cc2F)C1 (stereo not drawn) [Compound 320] | 2.95 mg/L (≈ 5.02 µM)
29 | COc1nc2ccc(Br)cc2cc1C(c1ccc(Cl)cc1)C1(O)CCNC(Cc2ccc(F)cc2)C1 (stereo not drawn) [Compound 337] | 0.90 mg/L (≈ 1.58 µM)
30 | COc1nc2ccc(Br)cc2cc1C(c1ccc(Cl)cc1)C1(O)CCNC(Cc2ccc(F)cc2)C1 (stereo not drawn) [Compound 338] | 1.43 mg/L (≈ 2.51 µM)
31 | COc1nc2ccc(Br)cc2cc1C(c1ccc(Cl)cc1)C1(O)CCNC(Cc2ccc(F)cc2)C1 (stereo not drawn) [Compound 339] | 1.80 mg/L (≈ 3.16 µM)
32 | COc1nc2ccc(Br)cc2cc1C(c1ccc(Cl)cc1)C1(O)CCNC(Cc2ccc(F)cc2)C1 (stereo not drawn) [Compound 340] | 1.43 mg/L (≈ 2.51 µM)
33 | COc1nc2ccc(Cl)cc2cc1C(c1ccc(SC)cc1)C1(O)CCNC(c2ccc(F)cc2C)C1 (stereo not drawn) [Compound 351] | 1.35 mg/L (≈ 2.51 µM)
34 | COc1nc2ccc(Cl)cc2cc1C(c1ccc(SC)cc1)C1(O)CCNC(c2ccc(F)cc2C)C1 (stereo not drawn) [Compound 352] | 0.85 mg/L (≈ 1.58 µM)
35 | COc1nc2ccc(Br)cc2cc1C(c1ccc(Cl)cc1)C1(O)CCNC(Cc2ccc(F)cc2)C1 (stereo not drawn) [Compound 355] | 1.43 mg/L (≈ 2.51 µM)
36 | COc1nc2ccc(Br)cc2cc1C(c1ccc(Cl)cc1)C1(O)CCNC(Cc2ccc(F)cc2)C1 (stereo not drawn) [Compound 356] | 1.80 mg/L (≈ 3.16 µM)
37 | COc1nc2ccc(Br)cc2cc1C(c1ccc(Cl)cc1)C1(O)CCNC(Cc2ccc(F)cc2)C1 (stereo not drawn) [Compound 357] | 3.60 mg/L (≈ 6.32 µM)
38 | COc1nc2ccc(Br)cc2cc1C(c1ccc(Cl)cc1)C1(O)CCNC(Cc2ccc(F)cc2)C1 (stereo not drawn) [Compound 358] | 1.43 mg/L (≈ 2.51 µM)
39 | COc1nc2ccc(Cl)cc2cc1C(c1ccc(S(C)(=O)=O)cc1)C1(O)CCNC(c2ccc(F)cc2C)C1 (stereo not drawn) [Compound 366] | 3.59 mg/L (≈ 6.31 µM)
40 | COc1nc2ccc(Cl)cc2cc1C(c1ccc(S(C)(=O)=O)cc1)C1(O)CCNC(c2ccc(F)cc2C)C1 (stereo not drawn) [Compound 367] | 5.69 mg/L (≈ 10 µM)
41 | C=CC1CC(O)(C(c2ccc(Cl)cc2)c2cc3cc(Br)ccc3nc2OC)CCN1 (stereo not drawn) [Compound 371] | 2.44 mg/L (≈ 5 µM)
42 | C=CC1CC(O)(C(c2ccc(Cl)cc2)c2cc3cc(Br)ccc3nc2OC)CCN1 (stereo not drawn) [Compound 372] | 3.08 mg/L (≈ 6.31 µM)

Same assay, conditions: Mycolicibacterium smegmatis, ATCC607, 48 h, 90% inhibitory concentration for bacterial growth, Alamar Blue fluorescence, read-out: IC90 MSM 607

Row | Compound | IC90
43 | COc1nc2ccc(CN)cc2cc1[C@@H](c1ccccc1)C1(O)CCNC(Cc2ccccc2)C1 (stereo partly drawn) [Compound 246] | > 11.8 mg/L
44 | COc1nc2ccc(SC)cc2cc1C(c1ccc(Cl)cc1)C1(O)CCNC(CC2CCCCC2)C1 (stereo not drawn) [Compound 287] | 2.63 mg/L (≈ 5.01 µM)

Test system: not given
Assay: not given
Conditions: not given

Row | Compound | melting point
45 | COc1nc2ccc(Br)cc2cc1C(c1ccc(Cl)cc1)C1(O)CCNCC1Cc1cccc(F)c1 (stereo not drawn) [Compound 226] | 221 °C
46 | COc1nc2ccc(CN)cc2cc1[C@@H](c1ccccc1)C1(O)CCNC(Cc2ccccc2)C1 (stereo partly drawn) [Compound 246] | 100 °C
47 | COc1nc2ccc(SC)cc2cc1C(c1ccc(Cl)cc1)C1(O)CCNC(CC2CCCCC2)C1 (stereo not drawn) [Compound 287] | 185 °C
48 | COc1nc2ccc(S(C)(=O)=O)cc2cc1C(c1ccc(Cl)cc1)C1(O)CCNCC1Cc1cccc(F)c1 (stereo not drawn) [Compound 291] | 150 °C
49 | COc1nc2ccc(SC)cc2cc1C(c1ccc(Cl)cc1)C1(O)CCNC(Cc2ccc(F)cc2)C1 (stereo not drawn) [Compound 301] | 170 °C
50 | COc1nc2ccc(SC)cc2cc1C(c1ccc(Cl)cc1)C1(O)CCNC(Cc2ccc(F)cc2)C1 (stereo not drawn) [Compound 302] | 120 °C
51 | COc1nc2ccc(SC)cc2cc1C(c1cccc(Cl)c1)C1(O)CCNC(Cc2ccc(F)cc2F)C1 (stereo not drawn) [Compound 318] | 133 °C
52 | COc1nc2ccc(Br)cc2cc1C(c1ccc(Cl)cc1)C1(O)CCNC(Cc2ccc(F)cc2F)C1 (stereo not drawn) [Compound 320] | 159 °C
53 | COc1nc2ccc(Br)cc2cc1C(c1ccc(Cl)cc1)C1(O)CCNC(Cc2ccc(F)cc2)C1 (stereo not drawn) [Compound 337] | 186 °C
54 | COc1nc2ccc(Br)cc2cc1C(c1ccc(Cl)cc1)C1(O)CCNC(Cc2ccc(F)cc2)C1 (stereo not drawn) [Compound 338] | 198 °C
55 | COc1nc2ccc(Br)cc2cc1C(c1ccc(Cl)cc1)C1(O)CCNC(Cc2ccc(F)cc2)C1 (stereo not drawn) [Compound 339] | 176 °C
56 | COc1nc2ccc(Br)cc2cc1C(c1ccc(Cl)cc1)C1(O)CCNC(Cc2ccc(F)cc2)C1 (stereo not drawn) [Compound 340] | 132 °C
57 | COc1nc2ccc(Cl)cc2cc1C(c1ccc(SC)cc1)C1(O)CCNC(c2ccc(F)cc2C)C1 (stereo not drawn) [Compound 351] | 128 to 130 °C
58 | COc1nc2ccc(Cl)cc2cc1C(c1ccc(SC)cc1)C1(O)CCNC(c2ccc(F)cc2C)C1 (stereo not drawn) [Compound 352] | 123 to 125 °C
59 | COc1nc2ccc(Br)cc2cc1C(c1ccc(Cl)cc1)C1(O)CCNC(Cc2ccc(F)cc2)C1 (stereo not drawn) [Compound 355] | 190 °C
60 | COc1nc2ccc(Br)cc2cc1C(c1ccc(Cl)cc1)C1(O)CCNC(Cc2ccc(F)cc2)C1 (stereo not drawn) [Compound 356] | 98 °C
61 | COc1nc2ccc(Br)cc2cc1C(c1ccc(Cl)cc1)C1(O)CCNC(Cc2ccc(F)cc2)C1 (stereo not drawn) [Compound 357] | 104 °C
62 | COc1nc2ccc(Br)cc2cc1C(c1ccc(Cl)cc1)C1(O)CCNC(Cc2ccc(F)cc2)C1 (stereo not drawn) [Compound 358] | 138 °C
63 | COc1nc2ccc(Cl)cc2cc1C(c1ccc(S(C)(=O)=O)cc1)C1(O)CCNC(c2ccc(F)cc2C)C1 (stereo not drawn) [Compound 366] | 146 °C
64 | COc1nc2ccc(Cl)cc2cc1C(c1ccc(S(C)(=O)=O)cc1)C1(O)CCNC(c2ccc(F)cc2C)C1 (stereo not drawn) [Compound 367] | 175 °C
65 | C=CC1CC(O)(C(c2ccc(Cl)cc2)c2cc3cc(Br)ccc3nc2OC)CCN1 (stereo not drawn) [Compound 371] | 158 °C
66 | C=CC1CC(O)(C(c2ccc(Cl)cc2)c2cc3cc(Br)ccc3nc2OC)CCN1 (stereo not drawn) [Compound 372] | 194 °C

Reference: patent US9617244B2, “Antibacterial quinoline derivatives” (JANSSEN PHARMACEUTICA NV, priority 2012, dated 2017)
